Inconclusive results and toxic doses are left out. Rule as the data show it: active = T/C of 150% or more; inactive = T/C below 125%.
Test system: L1210 leukemia ip in BDF1 mice, survival T/C
Test: NCI In Vivo Anticancer Drug Screen. Data for tumor model L1210 Leukemia (intraperitoneal) in B6D2F1 (BDF1) mice
Details: endpoint: mean survival time, higher = longer survival
Method in brief: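 Tumor was transplanted into mice, which were then dosed with test compound or vehicle alone. Survival was recorded for each group, and the treated figure was expressed relative to the control figure.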

[1] = dose: 100.0 mg/kg/injection, schedule: Q01DX009 (ip), vehicle: saline with Tween-80
[2] = dose: 200.0 mg/kg/injection, schedule: Q01DX009 (ip), vehicle: saline with Tween-80
[3] = dose: 400.0 mg/kg/injection, schedule: Q01DX009 (ip), vehicle: saline with Tween-80
[4] = dose: 100.0 mg/kg/injection, schedule: Q04DX002 (ip), vehicle: Klucel (hydroxypropylcellulose) (HPC)
[5] = dose: 200.0 mg/kg/injection, schedule: Q04DX002 (ip), vehicle: Klucel (hydroxypropylcellulose) (HPC)
[6] = dose: 400.0 mg/kg/injection, schedule: Q04DX002 (ip), vehicle: Klucel (hydroxypropylcellulose) (HPC)
[7] = dose: 100.0 mg/kg/injection, schedule: Q04DX003 (ip), vehicle: saline
[8] = dose: 200.0 mg/kg/injection, schedule: Q04DX003 (ip), vehicle: saline
[9] = dose: 400.0 mg/kg/injection, schedule: Q04DX003 (ip), vehicle: saline
[10] = dose: 100.0 mg/kg/injection, schedule: Q04DX003 (ip), vehicle: Klucel (hydroxypropylcellulose) (HPC)
[11] = dose: 100.0 mg/kg/injection, schedule: Q01DX009 (ip), vehicle: Klucel (hydroxypropylcellulose) (HPC)
[12] = dose: 200.0 mg/kg/injection, schedule: Q01DX009 (ip), vehicle: Klucel (hydroxypropylcellulose) (HPC)
[13] = dose: 400.0 mg/kg/injection, schedule: Q01DX009 (ip), vehicle: Klucel (hydroxypropylcellulose) (HPC)

Measured: T/C

c1ccc2c(c1)CCC1=C2CCCC1
inactive: [1] 96 % of control | dose: 100.0 mg/kg/injection, schedule: Q04DX003 (ip), vehicle: saline with Tween-80 101 % of control | [2] 98 % of control | dose: 200.0 mg/kg/injection, schedule: Q04DX003 (ip), vehicle: saline with Tween-80 89 % of control | [3] 91 % of control | dose: 400.0 mg/kg/injection, schedule: Q04DX003 (ip), vehicle: saline with Tween-80 92 % of control

CCOc1ccc(CCOC(C)=O)cc1
inactive: [4] 97 % of control | [5] 101 % of control | [6] 101 % of control

CCNc1nc(C(F)(F)F)nc2[nH]ncc12
inactive: dose: 100.0 mg/kg/injection, schedule: Q01DX001 (ip), vehicle: acetone 101 % of control | [7] 101 % of control | dose: 200.0 mg/kg/injection, schedule: Q01DX001 (ip), vehicle: acetone 90 % of control | [8] 95 % of control | dose: 400.0 mg/kg/injection, schedule: Q01DX001 (ip), vehicle: acetone 90 % of control | [9] 97 % of control

Cc1cc(N(CCOS(C)(=O)=O)CCOS(C)(=O)=O)ccc1C=Nc1cccc(Br)c1
inactive: dose: 20.0 mg/kg/injection, schedule: Q04DX003 (ip), vehicle: Klucel (hydroxypropylcellulose) (HPC) 110 % of control | dose: 40.0 mg/kg/injection, schedule: Q04DX003 (ip), vehicle: Klucel (hydroxypropylcellulose) (HPC) 121 % of control | dose: 80.0 mg/kg/injection, schedule: Q04DX003 (ip), vehicle: Klucel (hydroxypropylcellulose) (HPC) 98 % of control | [10] 120 % of control

CCc1ccccc1NC(=O)Nc1cc(C)ccn1
inactive: [11] 102 % of control | [4] 102 % of control | [12] 107 % of control | [5] 102 % of control | [13] 102 % of control | [6] 106 % of control

Cc1cc(C)c(N(CC(=O)O)S(=O)(=O)c2ccccc2)c(C)c1N(CC(=O)O)S(=O)(=O)c1ccccc1
inactive: [1] 101 % of control | [2] 98 % of control | [3] 97 % of control

C[N+]1(CCC[N+]2(C)CC3CCCCC3C2)CCOCC1 (configuration not stated)
inactive: [7] 99 % of control | [8] 96 % of control | [9] 105 % of control

CCCCCCCCOc1ccc(C(=O)c2ccccc2)c(O)c1
inactive: [11] 100 % of control | [10] 94 % of control | [12] 101 % of control | dose: 200.0 mg/kg/injection, schedule: Q04DX003 (ip), vehicle: Klucel (hydroxypropylcellulose) (HPC) 96 % of control | [13] 94 % of control | dose: 400.0 mg/kg/injection, schedule: Q04DX003 (ip), vehicle: Klucel (hydroxypropylcellulose) (HPC) 94 % of control
